Patent EP0422618A1, “Polysaccharides with antiphlogistic activity, method for obtaining them and pharmaceutical compositions containing the same” (LOMAPHARM Rudolf Lohmann GmbH KG Pharmazeutische Fabrik, priority 1989, dated 1991)

Test system: Carrageenan induzierten Rattenpfotenödem
Experiment: Carrageenan-induced rat paw oedema test
Format: in vivo, Ratte
Conditions: 10 mg/kg i.v.
Excerpt: Die antiphlogistische Wirkung der erfindungsgemäßen Polysaccharide wurde im Carrageenan induzierten Rattenpfotenödemtest untersucht (Winter, C.A. et al., Proc. Soc. Exp. Biol. Med. 111, 544 (1962)).

COc1ccc2c(c1)c(CC(=O)O)c(C)n2C(=O)c1ccc(Cl)cc1 [Indometacin]
Hemmung des Rattenpfotenödems nach 8 Stunden: Indometacin 10 mg/kg i.v. 22,9%
